Ratio and IC50 data for 19 compounds are collected here from ChEMBL document CHEMBL1135264, “Thalidomide and its analogues as cyclooxygenase inhibitors” (Bioorg Med Chem Lett, 2002).

Test [1] addresses T1, Prostaglandin G/H synthase 1 (Ovis aries) (UniProt P05979).
T1 sequence (whole entry): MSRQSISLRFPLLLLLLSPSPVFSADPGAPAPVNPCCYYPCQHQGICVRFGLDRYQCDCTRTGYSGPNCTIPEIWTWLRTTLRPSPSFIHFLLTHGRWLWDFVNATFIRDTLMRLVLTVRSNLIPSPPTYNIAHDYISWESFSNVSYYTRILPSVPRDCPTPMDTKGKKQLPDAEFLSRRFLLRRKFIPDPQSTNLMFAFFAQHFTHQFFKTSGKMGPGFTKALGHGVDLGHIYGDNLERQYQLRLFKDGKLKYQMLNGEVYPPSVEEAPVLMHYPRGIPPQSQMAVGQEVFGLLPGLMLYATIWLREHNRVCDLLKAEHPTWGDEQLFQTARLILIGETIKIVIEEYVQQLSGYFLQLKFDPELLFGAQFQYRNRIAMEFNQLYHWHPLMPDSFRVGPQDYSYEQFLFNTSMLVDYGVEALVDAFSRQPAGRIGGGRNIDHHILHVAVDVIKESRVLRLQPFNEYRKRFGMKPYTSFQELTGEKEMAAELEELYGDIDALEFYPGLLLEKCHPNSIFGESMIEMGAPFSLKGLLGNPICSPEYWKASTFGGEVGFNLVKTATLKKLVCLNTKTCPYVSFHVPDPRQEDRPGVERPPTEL
The experiment in a line: Selective index (SI) which is the ratio of IC50 of Prostaglandin G/H synthase 1 / […].

The target of test [2] is T2, Prostaglandin G/H synthase 1 (Ovis aries, UniProt P05979).
T2 sequence (P05979 whole entry): T1 sequence (whole entry)
The experiment in a line: Inhibitory activity (RA1) against Prostaglandin G/H synthase 1 was calculated relative to aspirin.

The target of test [3] is T3, Prostaglandin G/H synthase 2 (Ovis aries, UniProt P79208).
T3 sequence (P79208 whole entry): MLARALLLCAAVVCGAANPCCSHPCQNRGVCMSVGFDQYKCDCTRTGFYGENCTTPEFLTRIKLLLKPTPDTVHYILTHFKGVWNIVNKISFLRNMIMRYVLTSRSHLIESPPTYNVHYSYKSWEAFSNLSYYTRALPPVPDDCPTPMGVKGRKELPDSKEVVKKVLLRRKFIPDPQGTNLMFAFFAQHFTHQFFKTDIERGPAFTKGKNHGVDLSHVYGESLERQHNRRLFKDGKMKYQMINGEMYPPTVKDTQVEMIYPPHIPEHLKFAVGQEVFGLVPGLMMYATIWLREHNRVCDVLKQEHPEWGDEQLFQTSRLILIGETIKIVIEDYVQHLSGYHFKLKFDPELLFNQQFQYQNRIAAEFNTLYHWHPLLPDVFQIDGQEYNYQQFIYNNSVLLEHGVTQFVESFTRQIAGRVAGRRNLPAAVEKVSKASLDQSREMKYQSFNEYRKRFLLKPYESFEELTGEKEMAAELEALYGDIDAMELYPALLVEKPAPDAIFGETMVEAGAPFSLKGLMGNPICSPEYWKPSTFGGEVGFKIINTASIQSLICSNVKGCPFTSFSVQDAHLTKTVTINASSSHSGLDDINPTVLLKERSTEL
In words: Inhibitory activity (RA2) against Prostaglandin G/H synthase 2 was calculated relative to aspirin.

Test [4] concerns the target T1, Prostaglandin G/H synthase 1 (Ovis aries). The experiment in a line: Selective index (SI) which is the ratio of IC50 of Prostaglandin G/H synthase 1 / […]; IN=Inactive.

Active and inactive are the calls of the source. No cut-off for these calls is given here.

Take `O=C1NCCCC1N1C(=O)c2ccccc2C1=O` (stereo unspecified): in test [1], the Ratio stood at 1.43.
As to `COc1cc(C)nc(N2C(=O)Cc3ccccc3C2=O)n1`, the Ratio in test [1] worked out at 0.45.
Consider `Cc1cc(C)cc(N2C(=O)c3ccccc3C2=O)c1`, for which the Ratio in test [1] was 2.14.
Regarding `C[C@@]1(N2C(=O)c3cccc(N)c3C2=O)CCC(=O)NC1=O`, the Ratio in test [1] amounted to 11.1.
The same measure, in the same setting: the same measure for `Cc1cc(C)nc(N2C(=O)Cc3ccccc3C2=O)c1`: 0.51.
The same measure, in the same setting: the figure for `Cc1cc(C)cc(N2C(=O)Cc3ccccc3C2=O)c1` is 0.39.
Regarding `C[C@@]1(N2C(=O)c3ccccc3C2=O)CCC(=O)NC1=O`, in test [1], the Ratio amounted to 2.56.
Same read-out and setting: the figure for `O=C1CCC(N2C(=O)c3ccccc3C2=O)C(=O)N1` (stereo unspecified) is 1.23.
On to `Cc1cc(C)c(C)c(N2C(=O)c3ccccc3C2=O)c1C`, for which the Ratio in test [1] turned out to be 4.16.
With `C[C@@]1(N2C(=O)c3ccc(N)cc3C2=O)CCC(=O)NC1=O`, the Ratio in test [1] was below 0.07.
Same read-out and setting: the figure for `O=C1CCN(N2C(=O)c3ccccc3C2=O)C(=O)N1` is 1.45; for `Cc1cc(C)c(C)c(N2C(=O)c3ccccc3C2=O)c1` it is 4.05.
For the compound `O=C1c2ccccc2C(=O)N1CCn1ccc(=O)[nH]c1=O`, in test [1], the Ratio is 0.44.
For `C[C@@]1(N2C(=O)c3cccc([N+](=O)[O-])c3C2=O)CCC(=O)NC1=O`, the Ratio in test [1] turned out to be 0.23.
Take `COc1cc(OC)nc(N2C(=O)Cc3ccccc3C2=O)n1`: the Ratio in test [1] is 0.38.
In the case of `C[C@]1(N2C(=O)c3ccccc3C2=O)CCC(=O)NC1=O`, the IC50 result in test [2] and in test [3] was “Not Active” throughout. Further, in test [4], the Ratio result is “inactive”.
Consider `Cc1cc(C)nc(N2C(=O)Cc3ccccc3C2=O)n1`, for which the Ratio in test [1] worked out at 0.45.
Take `C[C@@]1(N2C(=O)c3ccc([N+](=O)[O-])cc3C2=O)CCC(=O)NC1=O`: the Ratio in test [1] was 2.63.
The same measure, in the same setting: the same measure for `O=C1c2ccccc2C(=O)N1c1cnc(O)nc1O`: 7.69.
